Structures can show the parent of a compound that is named as a salt.
Legend:
[1] = thermal stability test at 60° C. and 90% relative humidity; type: physicochemical; conditions: for change of polymorph, purity and appearance: 15 days at 60° C. and 90% relative humidity, sodium salt
Method: The feature of the crystalline form M of Pantoprazole Sodium compound provided in the present invention is free of any crystalline solvents, and the melting point of the novel crystalline form is 192±2° C., which is higher than those of traditional crystalline forms. […] The product of the novel crystalline form has higher bulk density and fluidity with an appearance of stubby rod. The crystalline product especially has greater advantages in the preparation of formulations of Pantoprazole Sodium tablets, powder and subsequent other forms of such processes, due to the increased stability, fluidity and bulk density. At the same time, the product has better qualities in the process of filtering, washing, drying, packaging and storage due to the improvement of the properties described above.
1 g of dried solid Pantoprazole Sodium was added to 20 mL of n-butanol and n-pentanol (1:1, in volume) to form a suspension, and then 0.005 g BHA was added to the suspension under stirring, the suspension was heated to […] to make all the solid dissolved; and 60 mL of cyclohexane was dropwise added to the solution at a speed of 0.12 ml/min under constant temperature to obtain a suspension; meanwhile, a ultrasonic wave with a frequency of 20 KHz, a power of 50 W was applied, followed by cooling the solution down to 0° C. at a rate of 0.2° C./min, continuing to stir for 1 h, vacuum filtrating the crystal slurry, and the residue was dried at 50° C. and under normal pressure for 48 h to constant weight, to obtain crystalline form M of Pantoprazole Sodium product. XRD pattern of the novel crystalline form M was shown in FIG. 1, comprising characteristic peaks (expressed in degrees 2θ) at 5.62, 11.62, 12.16, 13.80, 17.18, 18.80, 21.72, 23.44, 25.16 and 26.88. DSC thermogram of the novel crystalline form M was shown in FIG. 2, comprising an endothermic peak at 192.61° C. […] The product of the novel crystalline form M had higher bulk density and fluidity with an appearance of stubby rod, as shown in FIG. 3.

[2] = storage stability at normal temperature and air humidity; type: physicochemical; conditions: 100 days stored at normal temperature and air humidity
Method: XRD pattern of the novel crystalline form M was shown in FIG. 1, comprising characteristic peaks (expressed in degrees 2θ) at 5.62, 11.62, 12.16, 13.80, 17.18, 18.80, 21.72, 23.44, 25.16 and 26.88. DSC thermogram of the novel crystalline form M was shown in FIG. 2, comprising an endothermic peak at 192.61° C. […] The product of the novel crystalline form M had higher bulk density and fluidity with an appearance of stubby rod, as shown in FIG. 3.

[3] = acute toxicity test in Beagle dogs; type: in vivo; conditions: dog, in vivo, doses 44-225 mg/kg
Method: (§1) 15 Beagle dogs were used for acute toxicity test, and given different doses of Pantoprazole Sodium of 44, 67, 100, 150 and 225 mg/kg. 3 animals belongs to each group and toxic reactions were observed after administration in each group. […] The Pantoprazole Sodium was divided into 5, 3 and […] groups by high, medium and low doses. The test period is 13 weeks. 80 healthy Wistar rats with males and females half and half were randomly divided into four groups, and were gavaged once a day regularly, drug withdrawal 2 weeks after administration 13 weeks, and then taken conventional toxicology observations and index detection.

Beagle dogs = experiment: acute toxicity test in Beagle dogs; type: in vivo; conditions: at the dose of 150 mg/kg
Method: as §1

Wistar rats = experiment: long-term toxicity test in rats (13 weeks)
Method: as §1

ICR mice = conditions: intravenous injection
Text: (§2) The median lethal dose method was taken for the acute toxicity test in mice. 50 ICR mice met experimental requirements were selected and randomly divided into 5 dose groups by weight, 10 animals each group with males and females half and half. […] Toxic reactions were observed during administration and after administration in mice.

in vivo = conditions: both, ICR, mouse, iv
Text: as §2

[4] = cited from earlier work
[5] = toxic reaction tests (overall comparison); type: in vivo; conditions: versus existing Pantoprazole Sodium

For `COc1ccnc(C[S+]([O-])c2nc3cc(OC(F)F)ccc3[n]2[Na+])c1OC` (stereo not drawn) [Example 1, 5-difluoromethoxy-2-[(3,4-dimethoxy-2-pyridinyl)methyl]sulfinyl-1H-benzimidazole sodium salt], the “change of polymorph, purity and appearance” value [1] was “did not make any change”, the “change of polymorph, purity and color” value [2] was “did not make any change” and the LD50 [3] was 70 mg/kg. The toxic reactions (Beagle dogs) was “tremors, increased salivation, limp, vomiting, and death after 20 min”, the “toxicology observations and indexes, medium- and low-dose groups” value (Wistar rats; Wistar rats, gavage once a day, 13 weeks, 3 and 1 g/kg) was “no significant difference occurred” and the “dose of nontoxic response” value (Wistar rats; both, Wistar, rat, in vivo, 13 weeks) was 3000 mg/kg. For the same molecule, the histopathological examination (Wistar rats; rat, in vivo) was “liver cell degeneration occurred in one rat”, the “indexes after drug withdrawal” value (Wistar rats; rat, in vivo) was “No obvious abnormality occurred” and the “toxic reactions during administration” value (ICR mice) was “struggling, shortness of breath, limbs limp, difficulty breathing, and severe to death”. The LD50 (in vivo) was 392 mg/kg.

In the case of `COc1ccnc(C[S+]([O-])c2nc3cc(OC(F)F)ccc3[n]2[Na+])c1OC` (stereo not drawn) [Example 2, 5-difluoromethoxy-2-[(3,4-dimethoxy-2-pyridinyl)methyl]sulfinyl-1H-benzimidazole sodium salt], the “change of polymorph, purity and appearance” value [1] was “did not make any change” and the “change of polymorph, purity and color” value [2] was “did not make any change”.

With `COc1ccnc(C[S+]([O-])c2nc3cc(OC(F)F)ccc3[n]2[Na+])c1OC` (stereo not drawn) [Example 3, 5-difluoromethoxy-2-[(3,4-dimethoxy-2-pyridinyl)methyl]sulfinyl-1H-benzimidazole sodium salt] the “change of polymorph, purity and appearance” value [1] was “did not make any change” and the “change of polymorph, purity and color” value [2] was “did not make any change”.

For `COc1ccnc(C[S+]([O-])c2nc3cc(OC(F)F)ccc3[n]2[Na+])c1OC` (stereo not drawn) [Example 4, 5-difluoromethoxy-2-[(3,4-dimethoxy-2-pyridinyl)methyl]sulfinyl-1H-benzimidazole sodium salt], the “change of polymorph, purity and appearance” value [1] was “did not make any change” and the “change of polymorph, purity and color” value [2] was “did not make any change”.

In the case of `COc1ccnc(C[S+]([O-])c2nc3cc(OC(F)F)ccc3[n]2[Na+])c1OC` (stereo not drawn) [Pantoprazole Sodium, 5-difluoromethoxy-2-[(3,4-dimethoxy-2-pyridinyl)methyl]sulfinyl-1H-benzimidazole sodium salt], the “solubility in trichloromethane or ethyl ether” value ([4]; trichloromethane or ethyl ether) is listed as “almost insoluble” and the “solubility in water or methanol” value ([4]; water or methanol) is listed as “soluble”.

With `COc1ccnc(C[S+]([O-])c2nc3cc(OC(F)F)ccc3[n]2[Na+])c1OC` (stereo not drawn) [crystalline form M, 5-difluoromethoxy-2-[(3,4-dimethoxy-2-pyridinyl)methyl]sulfinyl-1H-benzimidazole sodium salt] the “change of polymorph, purity and appearance” value [1] was “do not changed”, the thermal stability ([1]; conclusion from 15 days at 60° C. and 90% relative humidity) was “better thermal stability” and the “toxicity compared with existing Pantoprazole Sodium” value [5] was “decreased toxicity”.
